{
  "source": "patent EP0323737A1",
  "about": "“4-Aralkyl-5-substituted-1,2,4-triazole-5-thiols” (SMITHKLINE BECKMAN CORPORATION, priority 1987, dated 1989)",
  "key": {"[1]": {"test_system": "spontaneously hypertensive rats", "assay": "mean arterial blood pressure in spontaneously hypertensive rats after oral dosing", "assay_type": "in vivo", "details": "50 mg/kg orally, compared to vehicle-treated controls, approximate", "procedure": "Further, spontaneously hypertensive rats were treated with a suspension or solution of 3-mercapto-4-benzyl-5-n- heptyl-1,2,4-triazole at a dose of 50 mg/kg orally, and mean arterial blood pressure was monitored for 260 minutes using indwelling cannulae in the tail arteries. […] Maximal blood pressure reduction was approximately 10 to 35 mm Hg."}, "[2]": {"details": "Teresawa et al., Japan Cir. J. 35, 339 (1971); cited from earlier work"}},
  "data": [
    {"smiles": "CCCCCCCc1nnc(S)n1Cc1ccccc1", "note": "[Example 35, 3-Mercapto-4-benzyl-5-n-heptyl-1,2,4-triazole]", "values": [
      {"measurement": "time after treatment to significant blood pressure reductions", "setting": "[1]", "result": "≤ 30", "unit": "min"}
    ]},
    {"smiles": "CCCCc1ccc(C(=O)O)nc1", "note": "[fusaric acid]", "values": [
      {"measurement": "toxic effect", "setting": "[2]", "result": "hepatotoxic"}
    ]}
  ]
}
